# Experimental data published in ChEMBL document CHEMBL4765470 (J Med Chem, 2021).
# Starred links: 1 amine or outer side, 2 acyl side, 3 side chain; linkers in the order of their positions; H or OH if unused. Non-standard residues stand in square brackets, D forms with d. Residues, ends and D or L forms follow the SMILES beside them. *: point of attachment. Bpa = N[C@@H](Cc1ccc(C(=O)c2ccccc2)cc1)C(=O)O; Ala(thiazol-5-yl) = N[C@@H](Cc1cncs1)C(=O)O; β3hPhg = O=C(C[C@@H](N[*:1])c1ccccc1)[*:2]; Bip = N[C@@H](Cc1ccc(-c2ccccc2)cc1)C(=O)O; GABA(4S-Me) = C[C@@H](CCC(=O)[*:2])N[*:1]; X1 = O=C([C@]1(Cc2ccccc2)CCCN1[*:1])[*:2]; 1Nal = N[C@@H](Cc1cccc2ccccc12)C(=O)O; 2Thi = N[C@@H](Cc1cccs1)C(=O)O; Cha = N[C@@H](CC1CCCCC1)C(=O)O; Tle = CC(C)(C)[C@H](N)C(=O)O; Pip = O=C(O)[C@@H]1CCCCN1; Nle = CCCC[C@H](N)C(=O)O; Orn = NCCC[C@H](N)C(=O)O; Ac5c = NC1(C(=O)O)CCCC1; Aze = O=C(O)[C@@H]1CCN1; Ac3c = NC1(C(=O)O)CC1; Bn = c1ccc(C*)cc1
# Molecular target: T1, Apelin receptor (Homo sapiens, UniProt P35414)
# T1 sequence (P35414 whole entry): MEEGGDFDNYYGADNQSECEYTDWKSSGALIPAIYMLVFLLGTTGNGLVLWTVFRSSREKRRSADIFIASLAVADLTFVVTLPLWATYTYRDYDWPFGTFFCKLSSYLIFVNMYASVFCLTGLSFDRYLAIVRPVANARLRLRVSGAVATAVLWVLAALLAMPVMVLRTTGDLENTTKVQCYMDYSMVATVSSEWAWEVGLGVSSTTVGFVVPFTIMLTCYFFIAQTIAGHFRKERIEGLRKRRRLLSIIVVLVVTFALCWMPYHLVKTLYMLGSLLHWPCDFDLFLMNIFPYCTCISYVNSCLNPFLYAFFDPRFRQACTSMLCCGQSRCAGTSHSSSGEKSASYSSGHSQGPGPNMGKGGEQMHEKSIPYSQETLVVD
# Test: Displacement of [125I] [NIe75, Tyr77]Pyr-apelin-13 from YFP-tagged human APJ receptor expressed in HEK293 cell membranes incubated for 1 hr by gamma counting based Cheng-Prusoff equation analysis
row,Compound,Ki [nM]
1,CCCC[C@H](N)C(=O)N1CCC[C@H]1C(=O)N[C@@H](CC(C)C)C(=O)N[C@@H](Cc1cnc[nH]1)C(=O)N[C@@H](CO)C(=O)N[C@@H](CCCNC(=N)N)C(=O)N[C@H](C(=O)N1CCC[C@H]1C(=O)N[C@@H](Cc1ccccc1)C(=O)N1CCC[C@@]1(Cc1ccccc1)C(=O)O)C(C)C (H-[Nle]PLHSRVPF[X1]-OH),916
2,CCCC[C@H](N)C(=O)N1CCC[C@H]1C(=O)N[C@@H](CC(C)C)C(=O)N[C@@H](Cc1cnc[nH]1)C(=O)N[C@@H](CO)C(=O)N[C@@H](CCCNC(=N)N)C(=O)N[C@H](C(=O)N1CC[C@H]1C(=O)N[C@@H](Cc1ccccc1)C(=O)O)C(C)C (H-[Nle]PLHSRV[Aze]F-OH),159
3,CCCC[C@H](N)C(=O)N1CCC[C@H]1C(=O)N[C@@H](CC(C)C)C(=O)N[C@@H](Cc1cnc[nH]1)C(=O)N[C@@H](CO)C(=O)N[C@@H](CCCNC(=N)N)C(=O)N[C@H](C(=O)N1CCC[C@H]1C(=O)N[C@@H](Cc1ccccc1)C(=O)N1C[C@H](OCc2ccccc2)C[C@H]1C(=O)O)C(C)C,38
4,CCCC[C@H](N)C(=O)N1CCC[C@H]1C(=O)N[C@@H](CC(C)C)C(=O)N[C@@H](Cc1cnc[nH]1)C(=O)N[C@@H](CO)C(=O)N[C@@H](CCCNC(=N)N)C(=O)N[C@H](C(=O)N1CCC[C@H]1C(=O)N[C@@H](Cc1ccc(OCc2ccccc2)cc1)C(=O)N1CCC[C@H]1C(=O)O)C(C)C (H-[Nle]PLHSRVPY(Bn)P-OH),> 10000
5,CCCC[C@H](N)C(=O)N1CCC[C@H]1C(=O)N[C@@H](CC(C)C)C(=O)N[C@@H](Cc1cnc[nH]1)C(=O)N[C@@H](CO)C(=O)N[C@@H](CCCNC(=N)N)C(=O)N[C@@H](CCC)C(=O)N1CCC[C@H]1C(=O)N[C@@H](Cc1ccccc1)C(=O)N1CCC[C@H]1C(=O)O,69
6,CCCC[C@H](N)C(=O)N1CCC[C@H]1C(=O)N[C@@H](CC(C)C)C(=O)N[C@@H](Cc1cnc[nH]1)C(=O)N[C@@H](CO)C(=O)N[C@@H](CCCNC(=N)N)C(=O)N[C@H](C(=O)N1CCCC[C@H]1C(=O)N[C@@H](Cc1ccccc1)C(=O)O)C(C)C (H-[Nle]PLHSRV[Pip]F-OH),186
7,CCCC[C@H](N)C(=O)N1CCC[C@H]1C(=O)N[C@@H](CC(C)C)C(=O)N[C@@H](Cc1cnc[nH]1)C(=O)N[C@@H](CO)C(=O)N[C@@H](CCCNC(=N)N)C(=O)N[C@H](C(=O)NC1(C(=O)N[C@@H](Cc2ccccc2)C(=O)O)CC1)C(C)C (H-[Nle]PLHSRV[Ac3c]F-OH),> 10000
8,CCCC[C@H](N)C(=O)N1CCC[C@H]1C(=O)N[C@@H](CC(C)C)C(=O)N[C@@H](Cc1cnc[nH]1)C(=O)N[C@@H](CO)C(=O)N[C@@H](CCCNC(=N)N)C(=O)N[C@H](C(=O)N1CCC[C@H]1C(=O)N[C@@H](C)CCC(=O)O)C(C)C (H-[Nle]PLHSRVP-{GABA(4S-Me)}),> 10000
9,CCCC[C@H](N)C(=O)N1CCC[C@H]1C(=O)N[C@@H](CC(C)C)C(=O)N[C@@H](Cc1cnc[nH]1)C(=O)N[C@@H](CO)C(=O)N[C@@H](CCCNC(=N)N)C(=O)N[C@H](C(=O)N1CCC[C@H]1C(=O)N[C@@H](Cc1ccccc1)C(=O)N[C@@H](C)C(=O)O)C(C)C (H-[Nle]PLHSRVPFA-OH),57
10,CCCC[C@H](N)C(=O)N1CCC[C@H]1C(=O)N[C@@H](CC(C)C)C(=O)N[C@@H](Cc1cccc2ccccc12)C(=O)N[C@@H](CO)C(=O)N[C@@H](CCCNC(=N)N)C(=O)N[C@H](C(=O)N1CCC[C@H]1C(=O)N[C@@H](Cc1ccccc1)C(=O)N1CCC[C@H]1C(=O)O)C(C)C (H-[Nle]PL[1Nal]SRVPFP-OH),> 10000
11,CCCC[C@H](N)C(=O)N1CCC[C@H]1C(=O)N[C@@H](CC(C)C)C(=O)N[C@@H](Cc1cnc[nH]1)C(=O)N[C@@H](CO)C(=O)N[C@@H](CCCNC(=N)N)C(=O)N[C@H](C(=O)N1CCC[C@H]1C(=O)N[C@@H](Cc1cccc2ccccc12)C(=O)O)C(C)C (H-[Nle]PLHSRVP[1Nal]-OH),94
12,CCCC[C@H](N)C(=O)N1CCC[C@H]1C(=O)N[C@@H](CC(C)C)C(=O)N[C@@H](Cc1cnc[nH]1)C(=O)N[C@@H](CO)C(=O)N[C@@H](CCCNC(=N)N)C(=O)N[C@H](C(=O)N1CCC[C@H]1C(=O)N[C@@H](Cc1ccccc1)C(=O)N1C[C@H](O)C[C@H]1C(=O)O)C(C)C,76
13,CCCC[C@H](N)C(=O)N1CCC[C@H]1C(=O)NC1(C(=O)N[C@@H](Cc2cnc[nH]2)C(=O)N[C@@H](CO)C(=O)N[C@@H](CCCNC(=N)N)C(=O)N[C@H](C(=O)N2CCC[C@H]2C(=O)N[C@@H](Cc2ccccc2)C(=O)N2CCC[C@H]2C(=O)O)C(C)C)CC1 (H-[Nle]P[Ac3c]HSRVPFP-OH),278
14,CCCC[C@H](N)C(=O)N1CCC[C@H]1C(=O)N[C@@H](CC(C)C)C(=O)N[C@@H](Cc1cnc[nH]1)C(=O)N[C@@H](CO)C(=O)N[C@@H](CCCNC(=N)N)C(=O)NC1(C(=O)N2CCC[C@H]2C(=O)N[C@@H](Cc2ccccc2)C(=O)N2CCC[C@H]2C(=O)O)CC1 (H-[Nle]PLHSR[Ac3c]PFP-OH),> 10000
15,CCCC[C@H](N)C(=O)N1CCC[C@H]1C(=O)N[C@@H](CC(C)C)C(=O)N[C@@H](Cc1cncs1)C(=O)N[C@@H](CO)C(=O)N[C@@H](CCCNC(=N)N)C(=O)N[C@H](C(=O)N1CCC[C@H]1C(=O)N[C@@H](Cc1ccccc1)C(=O)N1CCC[C@H]1C(=O)O)C(C)C (H-[Nle]PL[Ala(thiazol-5-yl)]SRVPFP-OH),71
16,CCCC[C@H](N)C(=O)N1CCC[C@H]1C(=O)N[C@@H](CC(C)C)C(=O)N[C@@H](Cc1cnc[nH]1)C(=O)N[C@@H](CO)C(=O)N[C@@H](CCCNC(=N)N)C(=O)N[C@H](C(=O)N1CCC[C@H]1C(=O)N[C@@H](Cc1ccc(OCc2ccccc2)cc1)C(=O)O)C(C)C (H-[Nle]PLHSRVPY(Bn)-OH),92
17,CCCC[C@H](N)C(=O)N1CCC[C@H]1C(=O)N[C@@H](CC(C)C)C(=O)N[C@@H](Cc1cnc[nH]1)C(=O)N[C@@H](CO)C(=O)N[C@@H](CCCNC(=N)N)C(=O)N[C@H](C(=O)N1CCC[C@H]1C(=O)N[C@H](CC(=O)O)c1ccccc1)C(C)C (H-[Nle]PLHSRVP-β3hPhg),228
18,CCCC[C@H](N)C(=O)N1CCC[C@H]1C(=O)N[C@@H](CC(C)C)C(=O)N[C@@H](Cc1cnc[nH]1)C(=O)N[C@@H](CO)C(=O)N[C@@H](CCCNC(=N)N)C(=O)N[C@H](C(=O)N1CCC[C@H]1C(=O)N[C@@H](Cc1ccccc1)C(=O)N1CCC[C@H]1C(=O)O)C(C)(C)C (H-[Nle]PLHSR[Tle]PFP-OH),174
19,CCCC[C@H](N)C(=O)N1CCC[C@H]1C(=O)N[C@@H](CC(C)C)C(=O)N[C@@H](Cc1cnc[nH]1)C(=O)N[C@@H](CO)C(=O)N[C@@H](CCCNC(=N)N)C(=O)N[C@H](C(=O)N1CCC[C@H]1C(=O)N[C@@H](C)C(=O)N1CCC[C@H]1C(=O)O)C(C)C (H-[Nle]PLHSRVPAP-OH),> 10000
20,CCCC[C@H](N)C(=O)N1CCC[C@H]1C(=O)N[C@@H](CC(C)C)C(=O)N[C@@H](Cc1cnc[nH]1)C(=O)N[C@@H](CO)C(=O)N[C@@H](CCCNC(=N)N)C(=O)NC1(C(=O)N2CCC[C@H]2C(=O)N[C@@H](Cc2ccccc2)C(=O)N2CCC[C@H]2C(=O)O)CCCC1 (H-[Nle]PLHSR[Ac5c]PFP-OH),> 10000
21,CCCC[C@H](N)C(=O)N1CCC[C@H]1C(=O)N[C@@H](CC(C)C)C(=O)N[C@@H](Cc1cccs1)C(=O)N[C@@H](CO)C(=O)N[C@@H](CCCNC(=N)N)C(=O)N[C@H](C(=O)N1CCC[C@H]1C(=O)N[C@@H](Cc1ccccc1)C(=O)N1CCC[C@H]1C(=O)O)C(C)C (H-[Nle]PL[2Thi]SRVPFP-OH),664
22,CCCC[C@H](N)C(=O)N1CCC[C@H]1C(=O)N[C@@H](CC(C)C)C(=O)N[C@@H](CCCN)C(=O)N[C@@H](CO)C(=O)N[C@@H](CCCNC(=N)N)C(=O)N[C@H](C(=O)N1CCC[C@H]1C(=O)N[C@@H](Cc1ccccc1)C(=O)N1CCC[C@H]1C(=O)O)C(C)C (H-[Nle]PL[Orn]SRVPFP-OH),> 10000
23,H-HSRVPFP-OH,> 10000
24,CCCC[C@H](N)C(=O)N1CCC[C@H]1C(=O)N[C@@H](CC(C)C)C(=O)N[C@@H](Cc1cnc[nH]1)C(=O)N[C@@H](CO)C(=O)N[C@@H](CCCNC(=N)N)C(=O)N[C@H](C(=O)N1CCC[C@H]1C(=O)N[C@@H](Cc1ccc(C(=O)c2ccccc2)cc1)C(=O)N1CCC[C@H]1C(=O)O)C(C)C (H-[Nle]PLHSRVP[Bpa]P-OH),> 10000
25,CCCC[C@H](N)C(=O)N1CCC[C@H]1C(=O)N[C@H](C(=O)N[C@@H](Cc1cnc[nH]1)C(=O)N[C@@H](CO)C(=O)N[C@@H](CCCNC(=N)N)C(=O)N[C@H](C(=O)N1CCC[C@H]1C(=O)N[C@@H](Cc1ccccc1)C(=O)N1CCC[C@H]1C(=O)O)C(C)C)C(C)C (H-[Nle]PVHSRVPFP-OH),54
26,CCCC[C@H](N)C(=O)N1CCC[C@H]1C(=O)N[C@@H](CC(C)C)C(=O)N[C@@H](Cc1cnc[nH]1)C(=O)N[C@@H](CO)C(=O)N[C@@H](CCCNC(=N)N)C(=O)N[C@H](C(=O)N1CCC[C@H]1C(=O)N[C@@H](Cc1ccc(-c2ccccc2)cc1)C(=O)N1CCC[C@H]1C(=O)O)C(C)C (H-[Nle]PLHSRVP[Bip]P-OH),> 10000
27,CCCC[C@H](N)C(=O)N1CCC[C@H]1C(=O)N[C@@H](CC(C)C)C(=O)N[C@@H](Cc1cnc[nH]1)C(=O)N[C@@H](CO)C(=O)N[C@@H](CCCNC(=N)N)C(=O)N[C@@H](CC1CCCCC1)C(=O)N1CCC[C@H]1C(=O)N[C@@H](Cc1ccccc1)C(=O)N1CCC[C@H]1C(=O)O (H-[Nle]PLHSR[Cha]PFP-OH),152
28,CCCC[C@H](N)C(=O)N1CCC[C@H]1C(=O)N(C)[C@@H](CC(C)C)C(=O)N[C@@H](Cc1cnc[nH]1)C(=O)N[C@@H](CO)C(=O)N[C@@H](CCCNC(=N)N)C(=O)N[C@H](C(=O)N1CCC[C@H]1C(=O)N[C@@H](Cc1ccccc1)C(=O)N1CCC[C@H]1C(=O)O)C(C)C,120
29,CCCC[C@H](N)C(=O)N1CCC[C@H]1C(=O)N[C@@H](CC(C)C)C(=O)N[C@@H](Cc1cnc[nH]1)C(=O)N[C@@H](CO)C(=O)N[C@@H](CCCNC(=N)N)C(=O)N[C@H](C(=O)N1CCC[C@H]1C(=O)N[C@@H](Cc1ccccc1)C(=O)O)C(C)C (H-[Nle]PLHSRVPF-OH),128
